Consider 25 compounds from ChEMBL document CHEMBL4814012, “Synthesis and structure-activity relationships of 5-phenyloxazole-2-carboxylic acid derivatives as novel inhibitors of tubulin polymerization” (Bioorg Med Chem Lett, 2021).

A word on the IC50: it is the concentration at which inhibition is half-maximal. A word on the inhibition: it is the drop in the measured response relative to a control, in per cent.

In one data set the test system is HeLa. Briefly: Cytotoxicity against human HeLa cells assessed as reduction in cell growth by CCK8 assay. It is filed as functional, cell-based.
The next data set concerns HepG2. Briefly: Cytotoxicity against human HepG2 cells assessed as reduction in cell growth by CCK8 assay. It is filed as functional, cell-based. For orientation: Formazan colour is commonly taken as a measure of viable cells.
In data set [1] the test system is A549. In words: Cytotoxicity against human A549 cells assessed as reduction in cell growth by CCK8 assay. The format is functional, cell-based.
In data set [2] the target is T1, Tubulin (Homo sapiens) (UniProt P68371+Q9H4B7+P0DPH7+P68366+Q13509+Q71U36+P04350+Q3ZCM7+P07437+P68363+Q9BQE3+Q6PEY2+Q13885+Q9BVA1+Q9BUF5). In words: Inhibition of tubulin polymerization (unknown origin) at 40 uM measured every 30 secs for 90 mins relative to control. It is filed as protein-complex assay.
A further data set concerns BEAS-2B. In words: Cytotoxicity against human BEAS-2B cells assessed as reduction in cell growth by CCK8 assay. The format is cell-based.
The target of a further data set is Tubulin. In words: (§1) Inhibition of tubulin polymerization (unknown origin) measured every 30 secs for 90 mins. It is filed as protein-complex assay, Homo sapiens.
Data set [3] can be described thus: Selectivity ratio of IC50 for human BEAS-2B cells to IC50 for human A549 cells. The note with it: BEAS-2B cells versus A549 cells, read-out: Ratio IC50. The format is toxicity.
Data set [4] concerns the target T1, Tubulin (Homo sapiens). Described as §1. It is filed as protein-complex assay.
Data set [5] relates to A549. Briefly: Induction of cell cycle arrest in human A549 cells assessed as accumulation at S phase at 1 uM after 24 hrs by flow cytometric analysis (reference value: 15.44%). The format is functional.
The test system of data set [6] is A549. Briefly: Induction of cell cycle arrest in human A549 cells assessed as accumulation at G2/M phase at 1 uM after 24 hrs by flow cytometric analysis (reference value: 14.08%). The format is functional. For orientation: In flow cytometry, cells or beads pass a laser one at a time.
For data set [7], the system named is A549. Briefly: Induction of cell cycle arrest in human A549 cells assessed as accumulation at G1 phase at 1 uM after 24 hrs by flow cytometric analysis (reference value: 70.48%). It is filed as functional.

Consider `CN(C)c1ccc(NC(=O)c2ncc(-c3ccccc3)o2)cc1`, for which the IC50 in the data set with HeLa, with HepG2 and in the data set on A549 [1] was over 30 µM in each case.
As to `COc1cccc(-c2cnc(C(=O)c3ccccc3)o2)c1`, the IC50 in the data set with HeLa, in the data set on HepG2 and with A549 [1] was over 30 µM in each case.
Turning to `COc1cc(-c2cnc(C(=O)c3ccccc3)o2)cc(OC)c1OC`, the IC50 in the data set with HeLa, in the data set with HepG2 and in the data set with A549 [1] was over 30 µM throughout.
On to `COc1ccc(NC(=O)c2ncc(-c3ccccc3)o2)cc1`, for which the IC50 in the data set on HeLa, with HepG2 and in the data set with A549 [1] was over 30 µM in each case.
In turn, `COc1ccc(-c2cnc(C(=O)Nc3ccc(O)cc3)o2)cc1` showed an inhibition against Tubulin (Homo sapiens) [2] of 27%. In addition, the 50% inhibitory concentration (IC50) with BEAS-2B was 4.58 µM; in the data set with HeLa, 1.44 µM; on Tubulin, over 40 µM; with HepG2, 2.76 µM; with A549 [1] it was 1.93 µM. Besides, the selectivity ratio in data set [3] turned out to be 2.37.
Regarding `COc1ccc(NC(=O)c2ncc(-c3cc(OC)c(OC)c(OC)c3)o2)cc1`, the IC50 in the data set with HeLa was 20.5 µM; in the data set on HepG2, over 30 µM; in the data set with A549 [1] it was 25.8 µM.
Turning to `O=C(Nc1cccc(O)c1)c1ncc(-c2ccccc2)o1`, the half-maximal inhibitory concentration (IC50) with HeLa, with HepG2 and with A549 [1] was over 30 µM throughout.
On to `O=C(Nc1ccc(O)cc1)c1ncc(-c2ccccc2)o1`, for which the inhibition was 91% against Tubulin (Homo sapiens) [2] and “Dose-Dependent Effect” at Tubulin (Homo sapiens) [4]. The IC50 in the data set on BEAS-2B is 3.36 µM; in the data set with HeLa, 0.78 µM; on Tubulin it was 16.7 µM; in the data set with HepG2, 1.27 µM; in the data set with A549 [1] it was 1.08 µM. Moreover, in [3], the selectivity ratio stood at 3.11. Also, the Activity came to 13.05% with A549 [5], 85.81% in the data set with A549 [6] and 1.14% in the data set with A549 [7].
`O=C(c1ccc(O)cc1)c1ncc(-c2ccccc2)o1`: the IC50 in the data set on HeLa, with HepG2 and in the data set with A549 [1] was over 30 µM in each case.
Consider `Cc1ccc(NC(=O)c2ncc(-c3ccccc3)o2)cc1`, for which the IC50 with HeLa, in the data set on HepG2 and with A549 [1] was over 30 µM each time.
Turning to `COc1cc(C(=O)c2ncc(-c3ccccc3)o2)cc(OC)c1OC`, the half-maximal inhibitory concentration (IC50) in the data set with HeLa, in the data set on HepG2 and in the data set with A549 [1] was over 30 µM each time.
For `COc1cc(-c2cnc(C(=O)Nc3ccccc3)o2)cc(OC)c1OC`, the IC50 in the data set with HeLa was 27.3 µM; in the data set with HepG2 it was over 30 µM; with A549 [1], over 30 µM.
As to `COc1ccc(-c2cnc(C(=O)c3ccccc3)o2)cc1`, the IC50 with HeLa, with HepG2 and in the data set with A549 [1] was over 30 µM in each case.
Turning to `COc1cc(-c2cnc(C(=O)Nc3ccc([N+](=O)[O-])cc3)o2)cc(OC)c1OC`, the IC50 in the data set on HeLa, in the data set with HepG2 and with A549 [1] was over 30 µM throughout.
For `CCN(CC)c1ccc(NC(=O)c2ncc(-c3ccccc3)o2)cc1`, the IC50 in the data set with HeLa, in the data set with HepG2 and in the data set on A549 [1] was over 30 µM in each case.
Take `O=C(Nc1ccc(O)cc1)c1ncc(-c2ccc(F)cc2)o1`: the IC50 with HeLa, in the data set on HepG2 and in the data set on A549 [1] was over 30 µM in each case.
With `O=C(Nc1ccc(Cl)cc1)c1ncc(-c2ccccc2)o1`, the 50% inhibitory concentration (IC50) in the data set on HeLa, with HepG2 and in the data set on A549 [1] was over 30 µM throughout.
In the case of `COc1ccc(C(=O)c2ncc(-c3ccc(OC)cc3)o2)cc1`, the IC50 in the data set with HeLa, with HepG2 and in the data set on A549 [1] was over 30 µM in each case.
On to `O=C(c1ncc(-c2ccccc2)o1)N1CCN(c2ccc(Cl)cc2)CC1`, for which the IC50 in the data set on HeLa, in the data set with HepG2 and in the data set with A549 [1] was over 30 µM each time.
As for `O=C(c1ncc(-c2ccccc2)o1)N1CCN(c2ccccc2)CC1`, the half-maximal inhibitory concentration (IC50) in the data set on HeLa, in the data set on HepG2 and in the data set on A549 [1] was over 30 µM in each case.
Consider `COc1cc(-c2cnc(C(=O)Nc3ccc(O)cc3)o2)cc(OC)c1OC`, for which the IC50 in the data set on HeLa, in the data set with HepG2 and with A549 [1] was over 30 µM throughout.
On Tubulin (Homo sapiens) [2], `COc1ccc(-c2cnc(C(=O)Nc3ccc(O)cc3)o2)cc1F` yielded an inhibition of 46%. In addition, the half-maximal inhibitory concentration (IC50) was 2.6 µM in the data set with BEAS-2B; 1.12 µM in the data set with HeLa; over 40 µM against Tubulin; 1.81 µM in the data set on HepG2; 1.2 µM with A549 [1]. In addition, in [3], the selectivity ratio was 2.17.
Take `COc1ccc(NC(=O)c2ncc(-c3ccc(O)cc3)o2)cc1`: the half-inhibitory concentration (IC50) in the data set with HeLa came to 9.67 µM; in the data set on HepG2, 17.3 µM; with A549 [1] it was 11.3 µM.
As for `COc1cc2c(c(OC)c1OC)-c1ccc(OC)c(=O)cc1[C@@H](NC(C)=O)CC2` [COLCHICINE], the IC50 in the data set with BEAS-2B worked out at 0.016 µM; with A549 [1] it was 0.053 µM.
Consider `COc1cc(-c2cnc(C(=O)Nc3ccc(F)cc3)o2)cc(OC)c1OC`, for which the 50% inhibitory concentration (IC50) with HeLa, in the data set on HepG2 and in the data set with A549 [1] was over 30 µM throughout.
